The source made the active and inactive calls. The calls are words filed in the database; no cut-off is given here.
Key:
Mus musculus [1] = assay: Antidiabetic activity in DIO mouse assessed as reduction in blood glucose at 10 nmol/kg, ip pretreated with compound and followed by glucose challenge and measured by oral glucose tolerance test; type: functional, organism-based
Mus musculus [2] = assay: Antidiabetic activity in db/db mouse assessed as reduction in blood glucose at 10 nmol/kg, ip pretreated with compound and followed by glucose challenge and measured by oral glucose tolerance test; type: functional, organism-based
Mus musculus [3] = assay: Antidiabetic activity in male DIO mouse assessed as reduction in acute food intake at 10 nmol/kg, sc measured at 24 hrs post administration; type: functional, organism-based
Rattus norvegicus = assay: Antidiabetic activity in overnight fasted male Sprague-Dawley rat assessed as reduction in food intake at 10 nmol/kg, ip; type: functional; parameters: scale not given: the % may be the effect or the level left
[4] = Toxicity in overnight fasted male Sprague-Dawley rat assessed as induction of Pica behaviour by measuring kaolin intake at 10 to 300 nmol/kg, ip; settings: in vivo, dose 10-300 nmol/kg
[5] = Cmax in male Sprague-Dawley rat at 25 nmol/kg, iv administered as single dose and measured after 24 hrs by LC-MS/MS analysis; type: ADME, organism-based; parameters: dose 25 nmol/kg, time 24 hrs, route iv; settings: in vivo
[6] = Half-life in male Sprague-Dawley rat at 25 nmol/kg, iv administered as single dose and measured after 24 hrs by LC-MS/MS analysis; type: ADME, organism-based; settings: in vivo
Mus musculus [7] = assay: Antidiabetic activity in non-fasted male db/db mouse assessed as reduction in glucose level at 10 to 100 nmol/kg, sc; type: functional, organism-based; settings: dose 10-100 nmol/kg, DDE = dose-dependent effect
Mus musculus [8] = assay: Antidiabetic activity in male DIO mouse assessed as decrease in fasted blood glucose at 100 nmol/kg, sc administered twice daily for 7 days; type: functional, organism-based; settings: time 7.0 day
[9] = Toxicity in male DIO mouse assessed as change in liver ALT level at 100 nmol/kg, sc administered twice daily for 7 days; type: organism-based; settings: in vivo, 168 h, time 7 day
[10] = Toxicity in male DIO mouse assessed as change in BUN at 100 nmol/kg, sc administered twice daily for 7 days; type: organism-based; settings: in vivo, 168 h, time 7 day
Mus musculus [11] = assay: Antidiabetic activity in male db/db mouse assessed as decrease in cumulative food intake at 100 nmol/kg, sc administered twice daily for 7 days; type: functional, organism-based; settings: time 7.0 day
[12] = Toxicity in male db/db mouse assessed as change in liver AST level at 100 nmol/kg, sc administered twice daily for 7 days; type: organism-based; settings: in vivo, 168 h, time 7 day
[13] = Toxicity in male db/db mouse assessed as change in liver ALT level at 100 nmol/kg, sc administered twice daily for 7 days; type: organism-based; settings: in vivo, 168 h, time 7 day
[14] = Toxicity in male db/db mouse assessed as change in Cre at 100 nmol/kg, sc administered twice daily for 7 days; type: organism-based; settings: in vivo, 168 h, time 7 day
Mus musculus [15] = assay: Antidiabetic activity in male db/db mouse assessed as significant reduction in body weight gain at 30 nmol/kg, sc administered twice daily for 35 days; type: functional, organism-based; settings: time 35.0 day
Mus musculus [16] = assay: Antidiabetic activity in male db/db mouse assessed as reduction in blood glucose level at 30 nmol/kg, sc administered twice daily for 35 days; type: functional, organism-based; settings: time 35.0 day
Mus musculus [17] = assay: Antidiabetic activity in male db/db mouse assessed as reduction in food consumption at 30 nmol/kg, sc administered twice daily for 35 days; type: functional, organism-based; settings: time 35.0 day
Mus musculus [18] = assay: Antidiabetic activity in male db/db mouse assessed as decrease in HbA1c level at 30 nmol/kg, sc administered twice daily for 35 days; type: functional, organism-based; settings: time 35.0 day
Mus musculus [19] = assay: Antidiabetic activity in male db/db mouse assessed as increase in islet area at 30 nmol/kg, sc administered twice daily for 35 days; type: functional, organism-based; settings: time 35.0 day
[20] = Toxicity in male db/db mouse assessed as change in serum amylase level at 30 nmol/kg, sc administered twice daily for 35 days; type: organism-based; settings: in vivo, 840 h, time 35 day
[21] = Toxicity in male db/db mouse assessed as change in serum lipase level at 30 nmol/kg, sc administered twice daily for 35 days; type: organism-based; settings: in vivo, 840 h, time 35 day
Mus musculus [22] = assay: Antidiabetic activity in male […] assessed as reduction in body weight at 30 nmol/kg, sc administered twice daily for 3 weeks; type: functional; parameters: scale not given: the % may be the effect or the level left
Mus musculus [23] = assay: Antidiabetic activity in male […] assessed as reduction in fat mas at 30 nmol/kg, sc administered twice daily for 3 weeks; type: functional, organism-based
Mus musculus [24] = assay: Antidiabetic activity in male […] assessed as reduction in fasted glucose level at 30 nmol/kg, sc administered twice daily for 3 weeks; type: functional, organism-based
Mus musculus [25] = assay: Antidiabetic activity in male […] assessed as improvement in glucose tolerance at 30 nmol/kg, sc administered twice daily for 3 weeks; type: functional, organism-based
Mus musculus [26] = assay: Antidiabetic activity in male […] assessed as decrease in serum total cholesterol level at 30 nmol/kg, sc administered twice daily for 3 weeks; type: functional, organism-based

Which Activity (Mus musculus [1]) does the source give for `CCCCCCCCCCCCCCCC(=O)N[C@@H](CCC(=O)NCCCC[C@H](NC(=O)[C@H](Cc1ccc(O)cc1)NC(=O)[C@H](CCCCN)NC(=O)[C@H](CO)NC(=O)[C@@H](NC(=O)[C@H](CC(=O)O)NC(=O)[C@H](CC(N)=O)NC(=O)[C@@H](NC(=O)[C@H](Cc1ccc(O)cc1)NC(=O)[C@@H](NC(=O)CNC(=O)[C@H](CCC(N)=O)NC(=O)[C@@H](CO)NC(=O)[C@@H](N)Cc1c[nH]cn1)[C@@H](C)O)[C@@H](C)O)C(C)C)C(=O)N[C@@H](CC(=O)O)C(=O)N[C@@H](CO)C(=O)N[C@@H](CCCNC(=N)N)C(=O)N[C@@H](CCCNC(=N)N)C(=O)N[C@@H](C)C(=O)N[C@@H](CCC(N)=O)C(=O)N[C@@H](CC(=O)O)C(=O)N[C@@H](Cc1ccccc1)C(=O)N[C@H](C(=O)N[C@@H](CCC(=O)O)C(=O)N[C@@H](Cc1c[nH]c2ccccc12)C(=O)N[C@@H](CC(C)C)C(=O)N[C@@H](CCCCN)C(=O)N[C@@H](CC(N)=O)C(=O)NCC(=O)NCC(=O)N1CCC[C@H]1C(=O)N[C@@H](CO)C(=O)N[C@@H](CO)C(=O)NCC(=O)N[C@@H](C)C(=O)N1CCC[C@H]1C(=O)N1CCC[C@H]1C(=O)N1CCC[C@H]1C(=O)N[C@@H](CO)C(N)=O)[C@@H](C)CC)C(=O)O` here?
The Activity was “Active”.

And the Activity (Mus musculus [2])?
The Activity was “Active”.

And the Activity (Mus musculus [3])?
Its Activity is “Active”.

What about the Activity (Rattus norvegicus) of the same molecule?
Its Activity is 25%.

What about the Activity [4] of the same molecule?
Its Activity is “Non-Toxic”.

And the Cmax [5]?
The Cmax was 1510 ng/mL.

And the half-life [6]?
Its half-life is 2.6 h.

And the Activity (Mus musculus [7])?
The Activity was “Dde”.

What about the Activity (Mus musculus [8]) of the same molecule?
Its Activity is “Active”.

And the Activity [9]?
Its Activity is “Non-Toxic”.

And the Activity [10]?
The Activity was “Non-Toxic”.

What about the Activity (Mus musculus [11]) of the same molecule?
The Activity was “Active”.

What about the Activity [12] of the same molecule?
The Activity was “Non-Toxic”.

And the Activity [13]?
The Activity was “Non-Toxic”.

And the Activity [14]?
The Activity was “Non-Toxic”.

And the Activity (Mus musculus [15])?
Its Activity is “Active”.

What about the Activity (Mus musculus [16]) of the same molecule?
The Activity was “Active”.

What about the Activity (Mus musculus [17]) of the same molecule?
Its Activity is “Active”.

And the Activity (Mus musculus [18])?
The Activity was “Active”.

And the Activity (Mus musculus [19])?
The Activity was “Active”.

What about the Activity [20] of the same molecule?
Its Activity is “Non-Toxic”.

What about the Activity [21] of the same molecule?
Its Activity is “Non-Toxic”.

And the Activity (Mus musculus [22])?
The Activity was 28.7%.

And the Activity (Mus musculus [23])?
Its Activity is “Active”.

And the Activity (Mus musculus [24])?
The Activity was “Active”.

What about the Activity (Mus musculus [25]) of the same molecule?
Its Activity is “Active”.

What about the Activity (Mus musculus [26]) of the same molecule?
The Activity was “Active”.
